# Assay results taken from PubChem BioAssay (NCI).
#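 Five concentrations, 48 hours, 96-well plates. Abbreviation: GI50, concentration required for 50% inhibition of growth. TGI: concentration producing complete growth inhibition.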
# Experiments:
# Test in all cases: NCI anticancer screen, dose series, 48 h
# UO-31 renal = tested on: UO-31 renal
# UACC-62 melanoma = tested on: UACC-62 melanoma
# SNB-75 CNS = tested on: SNB-75 CNS
# HOP-62 NSCLC = tested on: HOP-62 NSCLC
# EKVX NSCLC = tested on: EKVX NSCLC
# UACC-257 melanoma = tested on: UACC-257 melanoma
# SK-MEL-5 melanoma = tested on: SK-MEL-5 melanoma
# OVCAR-5 ovarian = tested on: OVCAR-5 ovarian
# HL-60(TB) leukemia = tested on: HL-60(TB) leukemia
# IGROV1 ovarian = tested on: IGROV1 ovarian
# OVCAR-3 ovarian = tested on: OVCAR-3 ovarian
# A549 NSCLC = tested on: A549 NSCLC
# NCI-H460 lung = tested on: NCI-H460 lung
# HCC-2998 colon = tested on: HCC-2998 colon
# MDA-MB-468 breast = tested on: MDA-MB-468 breast
# SN12C renal = tested on: SN12C renal
# MDA-MB-435 = tested on: MDA-MB-435
# COLO 205 colon = tested on: COLO 205 colon
# CCRF-CEM leukemia = tested on: CCRF-CEM leukemia
# MCF7 breast = tested on: MCF7 breast
# SF-268 CNS = tested on: SF-268 CNS
# KM12 colon = tested on: KM12 colon
# SK-MEL-28 melanoma = tested on: SK-MEL-28 melanoma
# M14 melanoma = tested on: M14 melanoma
# SW-620 colon = tested on: SW-620 colon
# SK-OV-3 ovarian = tested on: SK-OV-3 ovarian
# MDA-MB-231 breast = tested on: MDA-MB-231 breast
# LOX IMVI melanoma = tested on: LOX IMVI melanoma
# T-47D breast = tested on: T-47D breast
# HOP-92 NSCLC = tested on: HOP-92 NSCLC
# HT29 colon = tested on: HT29 colon
# BT-549 breast = tested on: BT-549 breast
# TK-10 renal = tested on: TK-10 renal
# RXF 393 renal = tested on: RXF 393 renal
# 786-0 renal = tested on: 786-0 renal
# MOLT-4 leukemia = tested on: MOLT-4 leukemia
# OVCAR-8 ovarian = tested on: OVCAR-8 ovarian
# U251 CNS = tested on: U251 CNS
# DU-145 prostate = tested on: DU-145 prostate
# A498 renal = tested on: A498 renal
# SR leukemia = tested on: SR leukemia
# NCI-H522 lung = tested on: NCI-H522 lung
# PC-3 prostate = tested on: PC-3 prostate
# HS 578T breast = tested on: HS 578T breast
# NCI-H226 lung = tested on: NCI-H226 lung
# SNB-19 CNS = tested on: SNB-19 CNS
# NCI-H23 lung = tested on: NCI-H23 lung
# RPMI-8226 leukemia = tested on: RPMI-8226 leukemia
# MALME-3M melanoma = tested on: MALME-3M melanoma
# HCT-15 colon = tested on: HCT-15 colon
# SK-MEL-2 melanoma = tested on: SK-MEL-2 melanoma
# SF-295 CNS = tested on: SF-295 CNS
# SF-539 CNS = tested on: SF-539 CNS
# ACHN renal = tested on: ACHN renal
# HCT-116 colon = tested on: HCT-116 colon
# K-562 leukemia = tested on: K-562 leukemia
structure (smiles),measurement,setting,value
O=C1C=CC(=CC=C2N(Cc3ccc4ccccc4c3)c3ccccc3N2Cc2ccc3ccccc3c2)C=C1,GI50,UO-31 renal,> 20.7 µM
same,TGI,UO-31 renal,> 100 µM
same,GI50,UACC-62 melanoma,1.4 µM
same,TGI,UACC-62 melanoma,2.82 µM
same,GI50,SNB-75 CNS,1.18 µM
same,TGI,SNB-75 CNS,3.18 µM
same,GI50,HOP-62 NSCLC,2.21 µM
same,GI50,EKVX NSCLC,1.26 µM
same,TGI,EKVX NSCLC,3.94 µM
same,GI50,UACC-257 melanoma,1.68 µM
same,TGI,UACC-257 melanoma,3.61 µM
same,GI50,SK-MEL-5 melanoma,0.697 µM
same,TGI,SK-MEL-5 melanoma,1.69 µM
same,GI50,OVCAR-5 ovarian,1.72 µM
same,TGI,OVCAR-5 ovarian,4.41 µM
same,GI50,HL-60(TB) leukemia,0.385 µM
same,TGI,HL-60(TB) leukemia,1.98 µM
same,GI50,IGROV1 ovarian,1.23 µM
same,TGI,IGROV1 ovarian,2.57 µM
same,GI50,OVCAR-3 ovarian,0.904 µM
same,TGI,OVCAR-3 ovarian,2.31 µM
same,GI50,A549 NSCLC,1.53 µM
same,TGI,A549 NSCLC,> 100 µM
same,GI50,NCI-H460 lung,0.654 µM
same,TGI,NCI-H460 lung,1.96 µM
same,GI50,HCC-2998 colon,1.5 µM
same,TGI,HCC-2998 colon,3.01 µM
same,GI50,MDA-MB-468 breast,0.399 µM
same,TGI,MDA-MB-468 breast,1.49 µM
same,GI50,SN12C renal,1.51 µM
same,TGI,SN12C renal,4.68 µM
same,GI50,MDA-MB-435,1.36 µM
same,TGI,MDA-MB-435,2.69 µM
same,GI50,COLO 205 colon,1.29 µM
same,TGI,COLO 205 colon,2.74 µM
same,GI50,CCRF-CEM leukemia,1.46 µM
same,TGI,CCRF-CEM leukemia,6.22 µM
same,GI50,MCF7 breast,1.19 µM
same,TGI,MCF7 breast,2.54 µM
same,GI50,SF-268 CNS,2.78 µM
same,TGI,SF-268 CNS,8.81 µM
same,GI50,KM12 colon,1.52 µM
same,TGI,KM12 colon,3.75 µM
same,GI50,SK-MEL-28 melanoma,1.29 µM
same,TGI,SK-MEL-28 melanoma,2.84 µM
same,GI50,M14 melanoma,0.999 µM
same,TGI,M14 melanoma,2.52 µM
same,GI50,SW-620 colon,1.26 µM
same,TGI,SW-620 colon,2.66 µM
same,GI50,SK-OV-3 ovarian,1.72 µM
same,TGI,SK-OV-3 ovarian,5.26 µM
same,GI50,MDA-MB-231 breast,1.4 µM
same,TGI,MDA-MB-231 breast,2.76 µM
same,GI50,LOX IMVI melanoma,0.887 µM
same,TGI,LOX IMVI melanoma,2.23 µM
same,GI50,T-47D breast,1.33 µM
same,TGI,T-47D breast,4.75 µM
same,GI50,HOP-92 NSCLC,0.883 µM
same,TGI,HOP-92 NSCLC,2.5 µM
same,GI50,HT29 colon,1.88 µM
same,TGI,HT29 colon,5.6 µM
same,GI50,BT-549 breast,1.26 µM
same,TGI,BT-549 breast,3.42 µM
same,GI50,TK-10 renal,2.06 µM
same,TGI,TK-10 renal,5.27 µM
same,GI50,RXF 393 renal,1.33 µM
same,TGI,RXF 393 renal,2.87 µM
same,GI50,786-0 renal,1.58 µM
same,TGI,786-0 renal,3.04 µM
same,GI50,MOLT-4 leukemia,1.48 µM
same,TGI,MOLT-4 leukemia,4.32 µM
same,GI50,OVCAR-8 ovarian,0.971 µM
same,TGI,OVCAR-8 ovarian,2.35 µM
same,GI50,U251 CNS,0.52 µM
same,TGI,U251 CNS,1.78 µM
same,GI50,DU-145 prostate,2.67 µM
same,TGI,DU-145 prostate,> 100 µM
same,GI50,A498 renal,2.89 µM
same,TGI,A498 renal,> 26.9 µM
same,GI50,SR leukemia,0.902 µM
same,TGI,SR leukemia,3.62 µM
same,GI50,NCI-H522 lung,1.48 µM
same,TGI,NCI-H522 lung,3.03 µM
same,GI50,PC-3 prostate,0.956 µM
same,TGI,PC-3 prostate,3.1 µM
same,GI50,HS 578T breast,1.47 µM
same,TGI,HS 578T breast,4.08 µM
same,GI50,NCI-H226 lung,1.39 µM
same,TGI,NCI-H226 lung,2.98 µM
same,GI50,SNB-19 CNS,0.92 µM
same,TGI,SNB-19 CNS,2.34 µM
same,GI50,NCI-H23 lung,1.25 µM
same,TGI,NCI-H23 lung,2.7 µM
same,GI50,RPMI-8226 leukemia,0.428 µM
same,TGI,RPMI-8226 leukemia,2.18 µM
same,GI50,MALME-3M melanoma,1.41 µM
same,TGI,MALME-3M melanoma,3.2 µM
same,GI50,HCT-15 colon,3.74 µM
same,TGI,HCT-15 colon,> 100 µM
same,GI50,SK-MEL-2 melanoma,1.58 µM
same,TGI,SK-MEL-2 melanoma,3.01 µM
same,GI50,SF-295 CNS,1.29 µM
same,TGI,SF-295 CNS,2.87 µM
same,GI50,SF-539 CNS,1.73 µM
same,TGI,SF-539 CNS,4.07 µM
same,GI50,ACHN renal,3.59 µM
same,TGI,ACHN renal,> 100 µM
same,GI50,HCT-116 colon,0.971 µM
same,TGI,HCT-116 colon,3.16 µM
same,GI50,K-562 leukemia,0.514 µM
